We go through 32 molecules from patent publication US11827628B2, “Compositions and methods for inhibition of the JAK pathway” (Rigel Pharmaceuticals, Inc., priority 2005, dated 2023).

pIC50: −log10 of the molar value. Structures can show the parent of a compound that is named as a salt. Where two headings read alike, the source gives them in different places.

The assay relates to up-regulation of ICAM-1 (CD54) by IFNγ in U937 human monocytic cells. Put plainly: U937 IFNγ ICAM1 FACS Assay. Type of assay: cell-based. Conditions: U937 cells stimulated with IFNγ, ICAM-1 expression by FACS, read-out: IC50, Example 44. Put shortly: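 Readout was the geometric-mean APC anti-ICAM-1 signal by FACS on live U937 monocytic cells, with % live cells also recorded. Cells were exposed to compounds (8 points, 3-fold dilutions, duplicates) for 30 min at 37 °C before 18–24 h of IFNγ stimulation. EC50 values were computed from the dose curve.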
Background: A flow cytometer gives signals particle by particle.

Regarding `NS(=O)(=O)c1cccc(Nc2ncc(F)c(Nc3ccc(OCc4cccnc4)cc3)n2)c1` [Compound I-188, N2-(3-Aminosulfonylphenyl)-5-fluoro-N4-[4-(3-pyridinyl)methyleneoxyphenyl]-2,4-pyrimidinediamine], the pIC50 (in general, the negative decadic logarithm of the IC50, by convention in mol/L) is 6.30.

In the case of `Cc1ccc(Nc2ncc(F)c(Nc3ccc(OCc4cccnc4)cc3)n2)cc1S(N)(=O)=O` [Compound I-189, N2-(3-Aminosulfonyl-4-methylphenyl)-5-fluoro-N4-[4-(3-pyridinyl)methyleneoxyphenyl]-2,4-pyrimidinediamine], the pIC50 was 6.29.

Take `CNS(=O)(=O)c1cc(Nc2ncc(F)c(Nc3ccc(OCc4cccnc4)cc3)n2)ccc1C` [Compound I-190, 5-Fluoro-N2-[3-(N-methylaminosulfony)-4-methylphenyl]-5-fluoro-N4-[4-(3-pyridinyl)methyleneoxyphenyl]-2,4-pyrimidinediamine]: the pIC50 is 5.82.

In the case of `CCN(CC)CCNS(=O)(=O)c1ccc(Nc2ncc(F)c(Nc3ccc(OCc4cccnc4)cc3)n2)cc1` [Compound I-191, N2-[4-(2-N,N-Diethylaminoethyl)aminosulfonylphenyl)-5-fluoro-N4-[4-(3-pyridinyl)methyleneoxyphenyl]-2,4-pyrimidinediamine], the pIC50 is 6.10.

Take `NS(=O)(=O)c1cccc(Nc2ncc(F)c(Nc3ccc(SCc4cccnc4)cc3)n2)c1` [Compound I-192, N2-(3-Aminosulfonylphenyl)-5-fluoro-N4-[4-(3-pyridinyl)-methylenethiophenyl]-2,4-pyrimidinediamine]: the pIC50 was 6.01.

On to `NS(=O)(=O)c1cccc(Nc2ncc(F)c(Nc3ccc(OCc4ccccn4)cc3)n2)c1` [Compound I-196, N2-(3-Aminosulfonylphenyl)-5-fluoro-N4-4-[(2-pyridinyl)methyleneoxyphenyl]-2,4-pyrimidinediamine Hydrochloride Salt], for which the negative logarithm of the IC50 (pIC50) is 6.12.

On to `Cc1cc(COc2ccc(Nc3nc(Nc4ccc(C)c(S(N)(=O)=O)c4)ncc3F)cc2)[nH]n1` [Compound I-197, N2-(3-Aminosulfonyl-4-methylphenyl)-5-fluoro-N4-[4-(3-methyl-(1H)-pyrazol-5-yl)methyleneoxyphenyl]-2,4-pyrimidinediamine], for which the negative-log IC50 (pIC50) is 5.89.

On to `Cc1cc(COc2ccc(Nc3nc(Nc4ccc(C)c(S(N)(=O)=O)c4)ncc3F)cc2)n(C)n1` [Compound I-198, N2-(3-Aminosulfonyl-4-methylphenyl)-N4-[4-(1,3-dimethyl-(1H)-pyrazol-5-yl)methyleneoxyphenyl]-5-fluoro-2,4-pyrimidinediamine], for which the pIC50 is 6.09.

`Cc1cc(COc2ccc(Nc3nc(Nc4ccc(C)c(S(N)(=O)=O)c4)ncc3F)cc2)n(Cc2ccccc2)n1` [Compound I-199, N2-(3-Aminosulfonyl-4-methylphenyl)-N4-[4-(1-benzyl-3-methyl-(1H)-pyrazol-5-yl)methyleneoxyphenyl]-5-fluoro-2,4-pyrimidinediamine]: the negative-log IC50 (pIC50) is 5.57.

`Cc1cc(COc2cccc(Nc3nc(Nc4ccc(C)c(S(N)(=O)=O)c4)ncc3F)c2)no1` [Compound I-214]: the pIC50 is 5.88.

With `CNS(=O)(=O)c1cc(Nc2ncc(F)c(Nc3ccc(Cn4ccnc4)cc3)n2)ccc1C` [III-85, 5-Fluoro-N2-[3-(N-methylaminosulfony)-4-methylphenyl]-N4-[4-(1-imidazolylmethyl)phenyl]-2,4-pyrimidinediamine hydrochloride], the pIC50 (hydrochloride) is 5.44.

`CNS(=O)(=O)c1cc(Nc2ncc(F)c(Nc3ccc(Cn4ccnc4)cc3)n2)ccc1C` [III-86, 5-Fluoro-N2-[3-(N-methylaminosulfony)-4-methylphenyl]-N4-[4-(1-imidazolylmethyl)phenyl]-2,4-pyrimidinediamine dihydrochloride]: the pIC50 (dihydrochloride) was 5.19.

Take `N#CCn1ccc2cc(Nc3nc(Nc4cccc(S(N)(=O)=O)c4)ncc3F)ccc21` [IX-5, N2-(3-Aminosulfonylphenyl)-N4-(1-cyanomethyleneindol-5-yl)-5-fluoro-2,4-pyrimidinediamine]: the pIC50 is 5.73.

As for `N#CCn1ccc2cc(Nc3nc(Nc4ccc(Cl)c(S(N)(=O)=O)c4)ncc3F)ccc21` [IX-7, N2-(3-Aminosulfonyl-4-chlorophenyl)-N4-(1-cyanomethyleneindol-5-yl)-5-fluoro-2,4-pyrimidinediamine], the pIC50 is 5.32.

In the case of `Cc1ccc(Nc2ncc(F)c(Nc3ccc4c(ccn4CC#N)c3)n2)cc1S(N)(=O)=O` [IX-8, N2-(3-Aminosulfonyl-4-methylphenyl)-N4-(1-cyanomethyleneindol-5-yl)-5-fluoro-2,4-pyrimidinediamine], the pIC50 is 6.27.

Turning to `Cc1ccc(Nc2ncc(F)c(Nc3ccc4[nH]cc(CC#N)c4c3)n2)cc1S(=O)(=O)NC1CCN(C)CC1` [IX-19, N4-(3-cyanomethylene-1H-indol-5yl)-5-fluoro-N2-[3-(1-methyl-4-aminopiperadine)sulfonyl-4-methylphenyl]-2,4-pyrimidinediamine], the pIC50 was 5.47.

Consider `Cc1ccc(Nc2ncc(F)c(Nc3ccc4c(c3)c(CC#N)cn4C)n2)cc1S(N)(=O)=O` [IX-20], for which the pIC50 was 5.54.

As to `NS(=O)(=O)c1cccc(Nc2ncc(F)c(Nc3ccc(OCC(F)(F)F)cc3)n2)c1` [VI-47, N2-(3-Aminosulfonylphenyl)-5-fluoro-N4-(4-trifluoromethylmethyleneoxyphenyl)-2,4-pyrimidinediamine], the pIC50 was 6.22.

In the case of `COCCOc1ccc(Nc2nc(Nc3ccc(Cl)c(S(N)(=O)=O)c3)ncc2F)cc1` [VI-111, N2-(3-Aminosulfonyl-4-chlorophenyl)-5-fluoro-N4-[4-(2-methoxyethyleneoxy)phenyl]-2,4-pyrimdinediamine], the pIC50 was 5.46.

`COCCOc1ccc(Nc2nc(Nc3ccc(C)c(S(N)(=O)=O)c3)ncc2F)cc1` [VI-112, N2-(3-Aminosulfonyl-4-methylphenyl)-5-fluoro-N4-[4-(2-methoxyethyleneoxy)phenyl]-2,4-pyrimdinediamine]: the pIC50 is 5.90.

On to `CCS(=O)(=O)N1CCc2cc(Nc3nc(Nc4ccc(S(N)(=O)=O)cc4)ncc3F)ccc2C1` [VII-13, N2-(4-aminosulfonyl)phenyl-N4-[(N-ethylsulfonyl)-1,2,3,4-tetrahydroisoquinolin-6-yl]-5-fluoro-2,4-pyrimidinediamine], for which the pIC50 was 5.89.

As to `CCS(=O)(=O)N1CCc2cc(Nc3nc(Nc4cccc(S(N)(=O)=O)c4)ncc3F)ccc2C1` [VII-14, N2-(3-aminosulfonyl)phenyl-N4-[(N-ethylsulfonyl)-1,2,3,4-tetrahydroisoquinolin-6-yl]-5-fluoro-2,4-pyrimidinediamine], the pIC50 is 6.06.

Regarding `CCS(=O)(=O)N1CCc2cc(Nc3nc(Nc4ccc(C)c(S(N)(=O)=O)c4)ncc3F)ccc2C1` [VII-15, N2-(3-aminosulfonyl-4-methyl)phenyl-N4-[(N-ethylsulfonyl)-1,2,3,4-tetrahydroisoquinolin-6-yl]-5-fluoro-2,4-pyrimidinediamine], the pIC50 was 6.25.

Consider `Cc1ccc(Nc2ncc(F)c(Nc3ccc4c(c3)CNCC4)n2)cc1S(N)(=O)=O` [VII-16, N2-(3-Aminosulfonyl-4-methylphenyl)-5-fluoro-N4-(1,2,3,4-tetrahydroisoquin-7-yl)-2,4-pyrimidinediamine], for which the pIC50 is 4.61.

Regarding `CNC(=O)N1CCc2ccc(Nc3nc(Nc4ccc(C)c(S(N)(=O)=O)c4)ncc3F)cc2C1` [VII-17, N2-(3-Aminosulfonyl-4-methylphenyl)-5-fluoro-N4-[2-(methylaminocarbonyl)-1,2,3,4-tetrahydroisoquin-7-yl]-2,4-pyrimidinediamine], the negative logarithm of the IC50 (pIC50) was 5.16.

Regarding `Cc1ccc(Nc2ncc(F)c(Nc3ccc4c(c3)CN(C(=O)N(C)C)CC4)n2)cc1S(N)(=O)=O` [VII-18, N2-(3-Aminosulfonyl-4-methylphenyl)-5-fluoro-N4-[2-(dimethylaminocarbonyl)-1,2,3,4-tetrahydroisoquin-7-yl]-2,4-pyrimidinediamine], the negative logarithm of the IC50 (pIC50) is 5.89.

Consider `CNC(=O)N1CCCc2cc(Nc3nc(Nc4ccc(C)c(S(N)(=O)=O)c4)ncc3F)ccc21` [VII-19, N2-(3-Aminosulfonyl-4-methylphenyl)-5-fluoro-N4-[1-(methylaminocarbonyl)-1,2,3,4-tetrahydroquin-6-yl]-2,4-pyrimidinediamine], for which the negative logarithm of the IC50 (pIC50) is 5.90.

Consider `COCCCn1ncc2cc(Nc3nc(Nc4cccc(S(N)(=O)=O)c4)ncc3F)ccc21` [VII-22, N2-(3-Aminosulfonylphenyl)-5-fluoro-N4-[1-(3-methoxypropyl)indazolin-5-yl]-2,4-pyrimidinediamine], for which the pIC50 is 6.07.

As for `COCCn1ncc2cc(Nc3nc(Nc4cccc(S(N)(=O)=O)c4)ncc3F)ccc21` [VII-23, N2-(3-Aminosulfonylphenyl)-5-fluoro-N4-[1-(2-methoxyethyl)indazolin-5-yl]-2,4-pyrimidinediamine], the pIC50 was 6.22.

On to `NC1CCOc2ccc(Nc3nc(Nc4ccc(S(N)(=O)=O)cc4)ncc3F)cc21` (centres unmarked) [VII-29, N2-(4-Aminosulfonylphenyl)-N4-(chroman-4-amine-6-yl)-5-fluoro-2,4-pyrimidinediamine], for which the pIC50 was 4.41.

In the case of `N#CCN1C(=O)CSc2ccc(Nc3nc(Nc4cccc(S(N)(=O)=O)c4)ncc3F)cc21` [VII-36, N2-(3-Aminosulphonylphenyl)-5-fluoro-N4-(3-oxo-4-cyanomethyl-benzo[1,4]thiazin-6-yl)-2,4-pyrimidinediamine], the pIC50 was 5.96.

Consider `CN1C(=O)C(C)(C)Oc2cc(Nc3nc(Nc4cccc(S(N)(=O)=O)c4)ncc3F)cnc21` [VII-42, N2-(3-Aminosulfonylphenyl)-N4-[2,2,4-trimethyl-3-oxo-5-pyrid[1,4]oxazin-7-yl]-5-fluoro-2,4-pyrimidinediamine], for which the pIC50 was 4.34.
